Measurements: US20240327334A1, “Covalent Inhibitors As Antiviral Agents” (Enanta Pharmaceuticals, Inc., priority 2022, published 2024)

Molecular target: SARS-CoV-2 Papain-like (PLpro) protease (Severe acute respiratory syndrome coronavirus 2, UniProt P0DTD1)
Assay: SARS-CoV-2 Papain-like (PLpro) protease biochemical enzyme inhibition assay (ubiquitin-fluorophore substrate, Ub-R110)
Conditions: not given

Row | SMILES | IC50 [nM]
1 | C[Si](C)(C)C#CCNC(=O)C(=O)NCc1ccccc1C(=O)NC1(c2ccc3ccccc3c2)CC1 [Example 202] | > 10000

Same assay, conditions: Ub-R110 substrate; run in duplicate; read-out: PLpro IC50

Row | SMILES | IC50 [nM]
2 | Cn1cc2ccc(C3(NC(=O)c4ccccc4CNC(=O)C(=O)NCC#N)CC3)cc2n1 [Example 340] | 100 to 1000
3 | NC(=O)N1CC[C@@H]1CNC(=O)C(=O)NCc1ccccc1C(=O)NC1(c2cccc3ccccc23)CC1 [Example 499] | 1000 to 10000
4 | C#CCNC(=O)C(=O)NCc1ccccc1C(=O)NC1(c2ccc3ncccc3c2)CC1 [Example 388] | < 100
5 | Cc1cccc(C)c1NC(=O)/C=C/CNC(=O)C(=O)NCc1ccccc1C(=O)NC1(c2cccc3ccccc23)CC1 [Example 562] | > 10000
6 | O=C(NC/C=C/c1ccccn1)C(=O)NCc1ccccc1C(=O)NC1(c2ccc3ccccc3c2)CC1 [Example 578] | 100 to 1000
7 | COC(=O)/C=C/CCNC(=O)C(=O)NCC1C[C@H]1C(=O)N[C@H](C)c1cccc2ccccc12 (stereo partly shown) [Example 17] | > 10000
8 | N#CCNC(=O)C(=O)NCc1ccccc1C(=O)NC1(c2cc(F)cc(C(F)(F)F)c2)CC1 [Example 375] | 1000 to 10000
9 | O=C(NCC#Cc1ccc(C(F)(F)F)s1)C(=O)NCc1ccccc1C(=O)NC1(c2ccc3ccccc3c2)CC1 [Example 89] | > 10000
10 | C#CCNC(=O)C(=O)NCc1ccccc1C(=O)NC1(c2cc(-c3nnc(C)o3)cc(-c3nnc(C)o3)c2)CC1 [Example 479] | 100 to 1000
11 | N#C/C=C/CCNC(=O)C(=O)NCc1ccccc1C(=O)NC1(c2ccc3c4c(cccc24)CC3)CC1 [Example 437] | 100 to 1000
12 | N#C[C@H]1CCCN1C(=O)C(=O)NCc1ccccc1C(=O)NC1(c2cccc3ccccc23)CC1 [Example 118] | > 10000
13 | COc1ccc(C#C[C@H](C)NC(=O)C(=O)NCc2ccccc2C(=O)NC2(c3ccc4nn(C)cc4c3)CC2)c(C#N)c1 [Example 112] | < 100
14 | N#CCNC(=O)C(=O)NCc1ccccc1C(=O)NC1(c2ccc(-c3ccc(F)cc3)cc2)CC1 [Example 542] | > 10000
15 | COC(=O)/C=C/CNC(=O)C(=O)NCC1C[C@@H]1C(=O)N[C@H](C)c1cccc2ccccc12 (stereo partly shown) [Example 20] | 1000 to 10000
16 | N#CCCCNC(=O)C(=O)NCc1ccccc1C(=O)NC1(c2ccc3ccccc3c2)CC1 [Example 403] | 1000 to 10000
17 | N#CN1CC(NC(=O)C(=O)NCc2ccccc2C(=O)NC2(c3cccc4ccccc34)CC2)C1 [Example 436, N1-(1-cyanoazetidin-3-yl)-N2-(2-((1-(naphthalen-1-yl)cyclopropyl)carbamoyl)benzyl)oxalamide] | 100 to 1000
18 | C#CCNC(=O)C(=O)NCc1ccccc1C(=O)NC1(c2cccc3ccccc23)COC1 [Example 102] | > 10000
19 | N#CCNC(=O)C(=O)NCc1ccccc1C(=O)NC1(c2cc(-c3cn(-c4ccc(F)cc4F)nn3)cc(C(F)(F)F)c2)CC1 [Example 58] | > 10000
20 | COc1cc(C2(NC(=O)c3ccccc3CNC(=O)C(=O)NC[C@@H]3CCN3C#N)CC2)cc2cn(C3CC3)nc12 [Example 516] | < 100
21 | C[C@@H](NC(=O)c1ccccc1CNC(=O)C(=O)NCCC(=O)C(F)(F)F)c1cccc2ccccc12 [Example 9] | 1000 to 10000
22 | N#CN1CCC[C@H]1CC(=O)NCc1ccccc1C(=O)NC1(c2cc(Br)cc3ccccc23)CC1 [Example 316] | 100 to 1000
23 | N#CCCOC(=O)NCc1ccccc1C(=O)NC1(c2cc(Br)cc3ccccc23)CC1 [Example 420] | 1000 to 10000
24 | COC(=O)/C=C/CNC(=O)C(=O)N(C)Cc1ccccc1C(=O)N[C@H](C)c1cccc2ccccc12 [Example 547] | > 10000

Row | SMILES | IC50 [nM]
25 | CC(C)n1nccc1C#CCNC(=O)C(=O)NCc1ccccc1C(=O)NC1(c2cc(F)cc(-c3cnn(C4CC4)c3)c2)CC1 [Example 278] | 100 to 1000
26 | O=C(NCC#Cc1nccs1)C(=O)NCc1ccccc1C(=O)NC1(c2cc(Cl)cc(-c3nccs3)c2)CC1 [Example 488] | < 100
27 | N#CCNC(=O)C(=O)NCc1ccccc1C(=O)NC1(c2cccc(-c3ccc(F)cc3)c2F)CC1 [Example 379] | < 100
28 | N#CCNC(=O)C(=O)NCc1ccc(C(=O)NC2CC2)cc1C(=O)NC1(c2ccc(F)c3ccccc23)CC1 [Example 116] | < 100
29 | COC(=O)/C=C/CNC(=O)C(=O)NCCc1ccccc1C(=O)N[C@H](C)c1cccc2ccccc12 [Example 37] | 100 to 1000
30 | C[C@@H](NC(=O)c1cc(F)cc(F)c1CNC(=O)C(=O)NCC#N)c1cccc2ccccc12 [Example 361] | > 10000
31 | N#C[C@H]1CCN1C(=O)C(=O)NCc1ccccc1C(=O)NC1(c2cccc3ccccc23)CC1 [Example 120] | > 10000
32 | N#CCNC(=O)C(=O)NCc1c(Cl)cccc1C(=O)NC1(c2cc(-c3cnn(C4CC4)c3)cc3ccccc23)CC1 [Example 291] | > 10000
33 | C#C[C@@H](C)NC(=O)C(=O)NCc1ccccc1C(=O)NC1(c2cccc3ccccc23)CC1 [Example 157] | 1000 to 10000
34 | C[C@@H](NC(=O)c1ccccc1CNC(=O)C(=O)NC1(C#N)CC1)c1cccc2ccccc12 [Example 15] | > 10000
35 | N#CCNC(=O)C(=O)NCc1ccccc1C(=O)NC1(c2cccc(Cl)c2Cl)CC1 [Example 378] | 100 to 1000
36 | COC(=O)/C=C/CN(C)C(=O)C(=O)NCc1ccccc1C(=O)N[C@H](C)c1cccc2ccccc12 [Example 546] | 1000 to 10000
37 | CCOc1cccnc1C#CC1(NC(=O)C(=O)NCc2ccccc2C(=O)NC2(c3ccc4ccccc4c3)CC2)CC1 [Example 203] | > 10000
38 | N#CCNC(=O)C(=O)NCc1ccccc1C(=O)NC1(c2c[nH]c3ncccc23)CC1 [Example 408] | < 100
39 | C[C@@H](C#Cc1ccc(F)cc1C#N)NC(=O)C(=O)NCc1ccccc1C(=O)NC1(c2ccc3nn(C)cc3c2)CC1 [Example 101] | 100 to 1000
40 | C#CCNC(=O)C(=O)NCc1ccccc1C(=O)NC1(c2cc(-c3c(C)nn(C)c3C)ccc2Cl)CC1 [Example 395] | 100 to 1000
41 | C#CCNC(=O)C(=O)NCc1ccccc1C(=O)NC1(c2cc(Cl)c3nn(C4CC4)cc3c2)CC1 [Example 339] | < 100
42 | COC(=O)/C=C/CNC(=O)C(=O)NCc1c(F)cc(F)cc1C(=O)N[C@H](C)c1cccc2ccccc12 [Example 30] | 100 to 1000
43 | COC(=O)/C=C/CNC(=O)C(=O)NCc1ccccc1C(=O)N[C@H](C)c1cc(-c2ccccc2)cc(C(F)(F)F)c1 [Example 35] | < 100
44 | N#CCNC(=O)C(=O)NCc1ccccc1C(=O)NC1(c2cccn3nccc23)CC1 [Example 405] | 100 to 1000
45 | N#CN1CC[C@@H]1CNC(=O)C(=O)NCc1ccccc1C(=O)NC1(c2cccc3ccccc23)CC1 [Example 498] | 100 to 1000
46 | CC#CCNC(=O)C(=O)NCc1ccccc1C(=O)NC1(c2cccc3ccccc23)CC1 [Example 150] | 1000 to 10000
47 | COC(=O)/C=C/C1(NC(=O)C(=O)NCc2ccccc2C(=O)N[C@H](C)c2cccc3ccccc23)CC1 [Example 36] | > 10000

Row | SMILES | IC50 [nM]
48 | C#CCNC(=O)C(=O)NCc1ccccc1C(=O)NC1(c2cc(-c3cn(-c4ccc(F)cc4F)nn3)cc(C(F)(F)F)c2)CC1 [Example 57] | 1000 to 10000
49 | NC(=O)N1CCC[C@H]1CNC(=O)C(=O)NCc1ccccc1C(=O)NC1(c2cccc3ccccc23)CC1 [Example 505] | 1000 to 10000
50 | C#CCNC(=O)C(=O)NCc1ccccc1C(=O)NC1(c2cc(Oc3cccc(OC)c3)cc(C(F)(F)F)c2)CC1 [Example 63] | > 10000
51 | N#Cc1cccc(C#CCNC(=O)C(=O)NCc2ccccc2C(=O)NC2(c3ccc4ccccc4c3)CC2)c1 [Example 93] | > 10000
52 | O=C(C#CCNC(=O)C(=O)NCc1ccccc1C(=O)NC1(c2ccc3ccccc3c2)CC1)Nc1ccccc1 [Example 521] | 100 to 1000
53 | C[C@@H](NC(=O)c1ccccc1CNC(=O)C(=O)NC/C=C/C(=O)N1CCCNC(=O)C1)c1cccc2ccccc12 [Example 549] | 100 to 1000
54 | O=C(NCC#Cc1nccs1)C(=O)NCc1ccccc1C(=O)NC1(c2cccc3cnccc23)CC1 [Example 391] | < 100
55 | COC(=O)/C=C/CNC(=O)C(=O)Nc1ccccc1C(=O)N[C@H](C)c1cccc2ccccc12 [Example 11] | > 10000
56 | N#CCNC(=O)C(=O)NCc1ccccc1C(=O)NC1(c2cc(Oc3cccc(C(F)(F)F)c3)cc(C(F)(F)F)c2)CC1 [Example 66] | > 10000
57 | C#C[C@H](C)NC(=O)C(=O)NCc1ccccc1C(=O)NC1(c2cc(F)cc(-c3cnn(C4CC4)c3)c2)CC1 [Example 141] | 100 to 1000
58 | N#CCNC(=O)C(=O)NCc1ccccc1C(=O)NC1(c2cccc(C(F)(F)F)c2F)CC1 [Example 376] | 100 to 1000
59 | Cn1cc2cc(C3(NC(=O)c4ccccc4CNC(=O)C(=O)NCC#Cc4ccc(Cl)cc4F)CC3)ccc2n1 [Example 148] | < 100
60 | C#CCNC(=O)C(=O)NCc1ccccc1C(=O)NC1(c2cc(Oc3cccc(C(F)(F)F)c3)cc(C(F)(F)F)c2)CC1 [Example 65] | > 10000
61 | C[C@@H](C#Cc1ccc(C#N)cc1C#N)NC(=O)C(=O)NCc1ccccc1C(=O)NC1(c2ccc3nn(C)cc3c2)CC1 [Example 110] | 1000 to 10000
62 | N#CCNC(=O)C(=O)NCc1ccccc1C(=O)NC1(c2ccc3ccccc3c2)CC1 [Example 39] | 100 to 1000
63 | O=C(NCc1ccccc1C(=O)NC1(c2ccc(F)c3ccccc23)CC1)C(=O)N[C@@H]1CNC1=O [Example 123] | > 10000
64 | N#CCNC(=O)C(=O)NCc1ccccc1C(=O)NC1(c2cc(N3CCOC3=O)cc3ccccc23)CC1 [Example 317] | < 100
65 | Cn1cc(C#CCNC(=O)C(=O)NCc2ccccc2C(=O)NC2(c3ccc4ccccc4c3)CC2)cn1 [Example 169] | > 10000
66 | CC(C)(O)Cn1cc(-c2cc(F)cc(C3(NC(=O)c4ccccc4CNC(=O)C(=O)NCC#N)CC3)c2)cn1 [Example 282] | 100 to 1000
67 | C#CCNC(=O)C(=O)NCc1ccccc1C(=O)NC1(c2cccc3ncccc23)CC1 [Example 374] | < 100
68 | C[C@@H](C#Cc1ncccc1C(F)(F)F)NC(=O)C(=O)NCc1ccccc1C(=O)NC1(c2cc(F)cc(-c3cnn(C4CC4)c3)c2)CC1 [Example 142] | 100 to 1000
69 | N#CN1CC(CNC(=O)C(=O)NCc2ccccc2C(=O)NC2(c3ccc4ccccc4c3)CC2)C1 [Example 430] | 100 to 1000
70 | C[C@@H](NC(=O)c1ocnc1CNC(=O)C(=O)NCC#N)c1cccc2ccccc12 [Example 365] | > 10000
